Data as given in a compilation of properties of binary mixtures (doi:10.1016/j.molliq.2012.02.019).

Experiment: xn = mol fraction of the nth substance listed
Settings: 101 kPa

CCCCCCCC[N+](C)(CCCCCCCC)CCCCCCCC.[Cl-] + COC(=O)OC
Settings | electrical conductivity, 298.15 K [S/m] | electrical conductivity, 303.15 K [S/m] | electrical conductivity, 308.15 K [S/m] | electrical conductivity, 313.15 K [S/m] | electrical conductivity, 318.15 K [S/m] | viscosity, 298.15 K [mPa·s] | viscosity, 303.15 K [mPa·s] | viscosity, 308.15 K [mPa·s] | viscosity, 313.15 K [mPa·s] | viscosity, 318.15 K [mPa·s]
x1 = 0.002 | 0.0001 | – | 0.0002 | 0.0003 | 0.0004 | – | – | – | – | –
x1 = 0.006 | – | 0.0003 | 0.0004 | – | 0.0006 | – | – | – | – | –
x1 = 0.011 | 0.0006 | 0.0008 | 0.0009 | 0.001 | 0.0012 | – | – | – | – | –
x1 = 0.015 | 0.0009 | – | 0.0013 | 0.0014 | 0.0015 | – | – | – | – | –
x2 = 0 | – | 0.0035 | 0.0049 | 0.0066 | 0.0087 | – | 1602 | 1067 | 770 | 570
x2 = 0.35 | 0.0047 | 0.0064 | 0.0084 | 0.0108 | 0.0138 | 530 | 400 | 304 | 238 | 200
x2 = 0.55 | 0.0098 | – | 0.016 | – | 0.0249 | 158 | – | 98 | – | 65.2
x2 = 0.67 | – | 0.019 | 0.0236 | 0.0287 | 0.0347 | – | 47.1 | 38.66 | 32.21 | 27.29
x2 = 0.76 | 0.0211 | 0.0259 | – | 0.038 | 0.0452 | 22.51 | 18.86 | – | 13.72 | 11.84
x2 = 0.83 | 0.0235 | 0.0287 | 0.0345 | 0.041 | 0.0482 | 10.27 | 8.87 | 7.71 | 6.91 | 6.15
x2 = 0.88 | – | 0.031 | 0.037 | 0.0438 | 0.0513 | – | 4.56 | 4.11 | 3.7 | 3.36
x2 = 0.92 | 0.0171 | 0.0204 | 0.0246 | – | 0.0342 | 2.52 | 2.27 | 2.07 | – | 1.75
x2 = 0.95 | 0.0076 | 0.0094 | – | 0.014 | 0.0167 | 1.41 | 1.3 | – | 1.13 | 1.06
x2 = 0.98 | 0.0012 | 0.0016 | – | – | 0.002 | 0.79 | 0.75 | – | – | 0.64

COC(=O)OC + CCCCCCCC[N+](C)(CCCCCCCC)CCCCCCCC.[Cl-]
x1 = 1
Settings | electrical conductivity [S/m] | viscosity [mPa·s]
303.15 K | 0.0001 | 0.55
308.15 K | – | 0.49
